Assay results as given in publication PMC10548421, “Anticancer Potential of Diruthenium Complexes with Bridging Hydrocarbyl Ligands from Bioactive Alkynols” (Inorganic Chemistry, 2023).

What was measured:
[1] = test system: Caco-2 human colorectal adenocarcinoma cell line; test: MTT in vitro cytotoxicity, Caco-2; type: cell-based; settings: incubation 24 h, mean ± SD
Description: Additionally, the assessment extended to a normal human fetal fibroblast cell line (MRC-5). Cells were obtained from ATCC collection and cultivated according to the producer’s instructions. Stock solutions of the compounds were prepared in DMF immediately before application, and diluted with H2O to achieve the final concentration of 0.1% v/v DMF.[99] The culture media were enriched with 10% fetal calf serum. Subsequently, the cells were exposed to the tested compounds, vehicle (0.1% v/v DMF) and Triton X-100 (1% v/v), during incubation. The conventional MTT assay was carried out following different incubation periods (Tables 5-6). The absorbance was measured at 570 nm by using a spectrophotometer (Infinite M200, Schoeller Instruments, Prague, Czech Republic). The obtained data are presented as the percentage of cell viability with 100% representing negative control treatment (0.1% v/v DMF) and 0% representing the positive control (Triton X-100). The half-maximal inhibitory concentrations (IC50) were determined from dose–response curves using GraphPad Prism 6 software (GraphPad Software, San Diego, USA).

[2] = Cyclic voltammetry in CH2Cl2/[N^nBu4]PF6; type: physicochemical; settings: CH2Cl2/[N^nBu4]PF6 0.2 M
Description: Cyclic voltammetry measurements were conducted by using a PalmSens4 instrument connected to a computer operating with the PSTrace5 electrochemical software. Prior to use, anhydrous CH2Cl2 (Merck) was stored under argon over 3 Å molecular sieves. Both [N^nBu4]PF6 (electrochemical grade) and FeCp2, obtained from Fluka, were utilized without requiring additional purification. Cyclic voltammetries were carried out under argon by utilizing a 0.2 M solution of [N^nBu4]PF6 in CH2Cl2 as the supporting electrolyte. The working electrode and the counter electrode were comprised of a platinum disk and a platinum gauze, respectively, both enclosed within a glass tube. A leakage-free miniature electrode of Ag/AgCl/KCl (from eDAQ) was employed as a reference. The three-electrode designed cell was subjected to predrying via vacuum heating and then filled with argon gas. The Schlenk-type design of the cell was effective in upholding both anhydrous and anaerobic conditions. Subsequently, a solution of supporting electrolyte, prepared under argon, was introduced into the cell, and the CV of the solvent was acquired. Afterward, the analyte was introduced, and voltammograms were recorded. Under the selected experimental conditions, the one-electron oxidation of ferrocene occurred at a standard potential of E° = +0.45 V relative to Ag/AgCl/KCl.

[3] = vs Ag/AgCl/KCl, peak potential of irreversible process

| SMILES | IC50 [1] | Formal electrode potential, oxidation [2, 3] | Formal electrode potential, reduction [2, 3] | Formal electrode potential, oxidation ([2]; vs FeCp2 (in parentheses)) | Formal electrode potential, reduction ([2]; vs FeCp2 (in parentheses)) |
| --- | --- | --- | --- | --- | --- |
| CC12CCC3c4ccc(O)cc4CCC3C1CCC2=C=[CH][Ru]1(=[C]=O)([CH]2C=CC=C2)[C](=O)[Ru+]1(=[C]=O)[CH]1C=CC=C1.F[B-](F)(F)F (mixture of isomers) [3b, [Ru2Cp2(CO)3{μ–η^1:η^2-CH=C=(estradiolylidene)}]BF4] | 36 ± 2.7 µM | – | – | – | – |
| F[B-](F)(F)F.O=[C]=[Ru+]1([CH]2C=CC=C2)[C](=O)[Ru]1(=[C]=O)([CH]=C=C1CCCC1)[CH]1C=CC=C1 (stereo not drawn) [3a, [Ru2Cp2(CO)3{μ–η^1:η^2-CH=C=(cyclopentylidene)}]BF4] | > 50 µM | +1.61 V | –1.00 V | +1.15 V | −1.46 V |
